The text below walks through data of patent publication US6682897B1, “Peptides derived from human heat protein 60 for treatment of diabetes, compositions, methods and kits” (Yeda Research and Development Co. Ltd., priority 1995, dated 2004).

One assay deals with NOD/Lt female mice. The assay is described as follows: Treatment of NOD mice with peptides in IFA: diabetes and mortality (Example 2). Particulars: 100 μg peptide in IFA s.c., nine-week old NOD/Lt females; for Diabetes (%): persistent blood glucose over 11.1 mmol/l at 25 weeks of age. The class given is in vivo. The protocol:
(iv) Treatment and follow-up. Peptides, […], in PBS, were emulsified with an equal volume of IFA and injected subcutaneously into 10-week-old NOD females as described (Elias and Cohen, 1995). Control mice received an equal volume of PBS emulsified in IFA. The mice were monitored monthly for non-fasting blood glucose at 10am using the Blood Glucose Sensor (MediSense. Inc., Waltham, Mass.). […] Histological examination of the islets of the pancreas was done on sections stained with hematoxylin and eosin. The sections were scored independently by two observers who both were unaware of the identity of the groups. The chi square test was used to ascertain the statistical differences between the various treatments.
To test whether the p12 and p32 peptides can block the progression of diabetes as p277(Val^6-Val^11), the p277(Val6-Val^11), p12 or p32 peptides (100 μg in a 0.1 cc emulsion of IFA) were administered subcutaneously to groups of 10-12 nine-week old NOD/Lt female mice of the Jackson Laboratory, Bar-Harbor, Me. Diabetes, determined as persistent blood glucose levels over 11.1 mmol/l, was tested at 25 weeks of age. Control mice were untreated or were treated with p278.

Assay [1] is described as follows: Cross-reactivity with native peptide by T-cell and antibody assays. The text has this: (ii) Antigens. […] Whenever unspecified, the human sequence is intended.
For assay [2] the following is noted: compared with p277; cited from earlier work.
Assay [3] deals with draining popliteal lymph node lymphocytes. As to the kind of experiment: T-cell proliferation of draining lymph node cells of NOD mice immunized with hsp60 peptides in CFA (Example 1, FIG. 2). Format: cell-based. Particulars: NOD mice immunized with peptide emulsified in CFA in hind foot pads, assayed after 10 days. The protocol: (iii) T-Cell proliferation to peptides. Mice. Nine week old NOD mice or mice of other strains were immunized in the hind foot pads with 0.1 ml of an emulsion containing 25 μg peptide in complete Freund's adjuvant (CFA; Difco, Detroit, Mich.) mixed with an equal volume of phosphate-buffered saline (PBS). The draining popliteal lymph nodes were removed 10 days later and suspensions of lymphocytes in triplicate cultures were tested for proliferation in the presence of the various peptides (5 μg/ml) using the incorporation of [^3H]-thymidine as described (Elias et al., 1991).
The immunogenicity of the hsp60 peptides p12, p32, p277(Val^6-Val^11) and p278 in NOD mice was tested by immunizing the mice with the peptides emulsified in CFA in the hind foot pads, and assaying the proliferative responses of draining lymph node cells after 10 days as described above in section iii(a).

In assay [4] the test system is Peripheral mononuclear cells (PBMC) of IDDM patients. The assay is described as follows: T-cell proliferative response of PBMC from newly diagnosed IDDM patients (Example 3). Conditions: antigen 10 μg/ml, 6 days, SI more than 2.0 positive. Format: cell-based, human. The protocol: To determine the T-cell responses to the various hsp60 peptides, lymphocytes from the peripheral blood of newly diagnosed (2 weeks-4 months) IDDM patients were tested in a proliferation assay. 10-20 ml of blood were removed into a sterile tube containing heparin as anti-coagulant and diluted in PBS 1:2. Peripheral mononuclear cells (PBMC) were isolated by centrifuging the blood over a lymphoprep layer. The PBMC were tested for proliferation in triplicates, in the presence of the various antigens (10 μg/ml) for 6 days using the incorporation of [^3H]-thymidine as a measure of proliferation. The antigens tested were human hsp60 or the hsp60 peptides p277(Val^6-Val^11), p12, p32 and control peptide p278. The T cell proliferative response is depicted as stimulation index (SI): The ratio between peptide-stimulated thymidine incorporation and background (no antigen added) thymidine incorporation by the T cells.

Marks after values point to notes of the source that are not given here.

Take “VLGGGVALLRVIPALDSLTPANED [p277(Val^6-Val^11)]”: the “Mortality (%)” value in the assay on NOD/Lt female mice is reported as 5* %. In the assay with NOD/Lt female mice, the “therapeutic effect in treatment of diabetes” value is recorded as “effective in treatment of diabetes”. The “Diabetes (%)” value in the assay on NOD/Lt female mice is on record as 10%; in the assay with NOD/Lt female mice (listed as p277 (Val^6 - Val^11)) it was 10* %. The “cross-reactivity with the native peptide” value in assay [1] is “completely cross-reactive”. The “activity in the treatment of diabetes” value in assay [2] is listed as “as active as p277”. For the same sequence, the “immunogenicity (proliferative responses of draining lymph node cells)” value in assay [3] is given as “strongly immunogenic”. The “T-cell proliferative response (SI)” value stood at 4.5 in assay [4] (Patient 1); 5.0 in assay [4] (Patient 2); 5.6 in assay [4] (Patient 3); 1.0 in assay [4] (Patient 4); 1.1 in assay [4] (Patient 5); 1.3 in assay [4] (Patient 6). Also, the figures for the “T-cell proliferative response (SI)” value in assay [4] (Patient 7) and in assay [4] (Patient 8) were 3.9 and 1.2, respectively.
